Here are results for three compounds from publication PMC4741971, “The dual topoisomerase inhibitor A35 preferentially and specially targets topoisomerase 2α by enhancing pre-strand and post-strand cleavage and inhibiting DNA religation” (Oncotarget, 2015).

The term IC50 denotes the concentration at which inhibition is half-maximal.

Common to all, as to type: biochemical
Assay [1] concerns the target T1, top1 (Homo sapiens, UniProt P11387).
T1 sequence (P11387 2-765): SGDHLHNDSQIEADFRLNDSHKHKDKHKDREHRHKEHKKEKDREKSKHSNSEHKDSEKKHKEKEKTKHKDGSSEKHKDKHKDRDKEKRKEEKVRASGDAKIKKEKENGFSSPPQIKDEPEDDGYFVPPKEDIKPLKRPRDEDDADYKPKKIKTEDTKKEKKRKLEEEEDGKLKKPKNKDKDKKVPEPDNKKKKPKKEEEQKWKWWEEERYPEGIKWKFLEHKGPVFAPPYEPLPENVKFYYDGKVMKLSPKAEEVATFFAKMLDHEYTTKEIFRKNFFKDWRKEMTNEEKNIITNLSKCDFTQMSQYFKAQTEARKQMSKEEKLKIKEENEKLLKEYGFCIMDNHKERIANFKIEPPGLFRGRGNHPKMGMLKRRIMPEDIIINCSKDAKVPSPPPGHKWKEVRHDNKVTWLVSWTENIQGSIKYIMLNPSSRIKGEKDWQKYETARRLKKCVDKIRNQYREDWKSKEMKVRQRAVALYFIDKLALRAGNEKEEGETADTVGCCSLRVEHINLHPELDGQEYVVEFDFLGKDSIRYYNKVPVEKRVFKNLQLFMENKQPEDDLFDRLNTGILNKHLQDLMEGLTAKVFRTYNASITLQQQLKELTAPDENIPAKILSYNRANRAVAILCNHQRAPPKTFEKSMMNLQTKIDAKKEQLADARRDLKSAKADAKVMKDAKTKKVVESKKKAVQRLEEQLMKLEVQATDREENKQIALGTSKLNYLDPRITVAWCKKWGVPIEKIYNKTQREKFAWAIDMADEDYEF
Kind of assay: top1-mediated cleavage of […]'-end-labeled 117-bp oligonucleotide.

Assay [2] deals with T2, top2α (Homo sapiens, UniProt P11388).
T2 construct: gene TOP2A
T2 sequence (P11388 whole entry): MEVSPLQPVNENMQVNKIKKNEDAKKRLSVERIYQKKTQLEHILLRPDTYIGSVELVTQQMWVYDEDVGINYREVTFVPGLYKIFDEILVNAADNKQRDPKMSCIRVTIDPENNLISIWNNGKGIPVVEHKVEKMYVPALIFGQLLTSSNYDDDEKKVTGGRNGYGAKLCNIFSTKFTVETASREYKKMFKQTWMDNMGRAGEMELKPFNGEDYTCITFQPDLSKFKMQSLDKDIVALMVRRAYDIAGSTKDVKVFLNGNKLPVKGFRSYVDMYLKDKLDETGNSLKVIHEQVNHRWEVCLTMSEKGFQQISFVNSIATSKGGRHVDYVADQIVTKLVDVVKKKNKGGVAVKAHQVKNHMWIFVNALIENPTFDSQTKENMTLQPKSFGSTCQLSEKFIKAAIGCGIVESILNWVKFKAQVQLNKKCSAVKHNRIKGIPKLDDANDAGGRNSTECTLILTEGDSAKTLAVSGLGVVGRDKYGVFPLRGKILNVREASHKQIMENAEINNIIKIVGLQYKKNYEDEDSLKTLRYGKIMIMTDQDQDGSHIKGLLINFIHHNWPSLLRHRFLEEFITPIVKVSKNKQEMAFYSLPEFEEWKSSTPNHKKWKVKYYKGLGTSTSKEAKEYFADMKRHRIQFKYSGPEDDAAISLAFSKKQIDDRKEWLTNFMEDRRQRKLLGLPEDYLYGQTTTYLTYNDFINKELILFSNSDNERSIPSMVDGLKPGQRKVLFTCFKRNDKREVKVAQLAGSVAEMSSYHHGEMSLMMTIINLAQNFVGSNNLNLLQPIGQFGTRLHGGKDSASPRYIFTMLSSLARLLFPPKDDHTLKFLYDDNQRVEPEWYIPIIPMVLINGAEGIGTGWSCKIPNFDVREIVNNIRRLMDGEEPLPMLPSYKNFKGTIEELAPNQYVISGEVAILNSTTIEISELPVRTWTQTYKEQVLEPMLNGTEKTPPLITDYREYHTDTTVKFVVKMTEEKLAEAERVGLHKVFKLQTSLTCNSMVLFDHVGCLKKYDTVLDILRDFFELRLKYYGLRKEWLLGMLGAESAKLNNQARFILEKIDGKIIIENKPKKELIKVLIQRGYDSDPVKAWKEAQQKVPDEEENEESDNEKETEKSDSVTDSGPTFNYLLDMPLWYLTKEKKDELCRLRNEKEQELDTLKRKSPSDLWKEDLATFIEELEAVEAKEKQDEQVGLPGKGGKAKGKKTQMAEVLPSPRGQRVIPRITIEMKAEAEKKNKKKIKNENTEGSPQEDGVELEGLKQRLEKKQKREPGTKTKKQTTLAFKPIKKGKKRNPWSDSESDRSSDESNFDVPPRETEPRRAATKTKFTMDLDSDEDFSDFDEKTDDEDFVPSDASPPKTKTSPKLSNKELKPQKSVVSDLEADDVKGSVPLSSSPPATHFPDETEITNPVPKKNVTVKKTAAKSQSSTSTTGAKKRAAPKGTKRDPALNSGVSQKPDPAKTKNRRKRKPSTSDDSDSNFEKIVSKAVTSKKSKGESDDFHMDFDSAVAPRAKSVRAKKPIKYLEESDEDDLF
Kind of assay: top2α-mediated pBR322 DNA relaxation assay; also cleavage and religation assays and TARDIS in cells.

Assay [3] deals with T1, top1. Kind of assay: top1-mediated DNA relaxation assay; also top1-mediated DNA cleavage and TARDIS in cells.
For assay [4], the target named is T2, top2α. Kind of assay: top2α-mediated pBR322 DNA relaxation assay at […].
The next assay addresses T3, top2β (Homo sapiens, UniProt Q02880).
T3 construct: gene TOP2B
The experiment in a line: purified top2β-mediated pBR322 DNA cleavage assay.

T3 sequence (Q02880 2-1626): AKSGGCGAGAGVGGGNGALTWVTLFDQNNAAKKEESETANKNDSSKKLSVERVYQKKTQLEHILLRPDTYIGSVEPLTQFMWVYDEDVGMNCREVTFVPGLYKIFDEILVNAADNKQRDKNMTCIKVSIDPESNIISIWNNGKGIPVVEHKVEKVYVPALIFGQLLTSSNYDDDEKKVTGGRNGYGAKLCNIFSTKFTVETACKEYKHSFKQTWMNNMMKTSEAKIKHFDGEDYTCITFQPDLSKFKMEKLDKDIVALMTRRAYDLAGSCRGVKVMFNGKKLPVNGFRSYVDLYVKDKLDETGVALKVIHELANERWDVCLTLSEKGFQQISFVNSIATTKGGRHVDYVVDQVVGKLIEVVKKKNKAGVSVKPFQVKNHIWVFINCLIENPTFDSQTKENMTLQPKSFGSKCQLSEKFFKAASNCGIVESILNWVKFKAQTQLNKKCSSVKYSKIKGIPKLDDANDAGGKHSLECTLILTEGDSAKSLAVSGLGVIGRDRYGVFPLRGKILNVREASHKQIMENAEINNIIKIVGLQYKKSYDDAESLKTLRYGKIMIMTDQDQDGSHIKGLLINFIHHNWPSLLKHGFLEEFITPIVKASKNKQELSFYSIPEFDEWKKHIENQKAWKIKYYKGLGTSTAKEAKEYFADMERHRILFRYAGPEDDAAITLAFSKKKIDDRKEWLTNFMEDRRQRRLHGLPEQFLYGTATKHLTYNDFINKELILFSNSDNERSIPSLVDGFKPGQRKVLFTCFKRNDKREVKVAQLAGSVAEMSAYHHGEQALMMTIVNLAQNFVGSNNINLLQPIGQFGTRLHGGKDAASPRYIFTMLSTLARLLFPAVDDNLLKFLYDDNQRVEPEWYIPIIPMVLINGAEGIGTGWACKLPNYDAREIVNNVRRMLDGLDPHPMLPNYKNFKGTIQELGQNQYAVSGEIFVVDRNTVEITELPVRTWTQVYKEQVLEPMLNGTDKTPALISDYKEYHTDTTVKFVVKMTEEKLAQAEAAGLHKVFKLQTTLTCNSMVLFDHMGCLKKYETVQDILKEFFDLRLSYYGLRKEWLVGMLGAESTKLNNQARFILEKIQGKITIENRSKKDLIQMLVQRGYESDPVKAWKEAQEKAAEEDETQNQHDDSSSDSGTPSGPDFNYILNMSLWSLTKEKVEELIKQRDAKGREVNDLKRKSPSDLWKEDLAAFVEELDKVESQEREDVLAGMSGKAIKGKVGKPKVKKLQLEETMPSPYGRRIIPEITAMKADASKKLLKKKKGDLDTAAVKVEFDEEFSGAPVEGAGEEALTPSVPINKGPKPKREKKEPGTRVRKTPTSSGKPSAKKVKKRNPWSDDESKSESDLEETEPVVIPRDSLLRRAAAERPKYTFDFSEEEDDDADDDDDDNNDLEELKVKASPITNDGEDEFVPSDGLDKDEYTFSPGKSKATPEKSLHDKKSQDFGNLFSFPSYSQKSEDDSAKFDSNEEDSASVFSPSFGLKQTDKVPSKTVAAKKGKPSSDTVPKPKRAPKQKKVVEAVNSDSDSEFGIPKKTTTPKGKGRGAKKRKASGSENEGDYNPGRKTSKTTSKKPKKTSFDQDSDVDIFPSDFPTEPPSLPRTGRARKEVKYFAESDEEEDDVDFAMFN

`CC[C@@]1(O)C(=O)OCc2c1cc1n(c2=O)Cc2cc3c(CN(C)C)c(O)ccc3nc2-1` [TPT, topotecan]: the “top1-mediated cleavage of 3'-end-labeled 117-bp oligonucleotide” value on top1 [1] is “the DNA breakage effect was weak and far less than the positive control TPT (topotecan)”.

Consider `COc1ccc2c(c[n+]3c4c2ccc2c5c(cc(c24)CC3)OCO5)c1OC(=O)c1ccccc1` [A35], for which the 50% inhibitory concentration (IC50) came out at 0.56 µM on top2α [2] and 22.1 µM at top1 [3].

Regarding `COc1cc([C@@H]2c3cc4c(cc3[C@@H](O[C@@H]3O[C@@H]5CO[C@@H](C)O[C@H]5[C@H](O)[C@H]3O)[C@H]3COC(=O)[C@H]23)OCO4)cc(OC)c1O` [VP16, etoposide], the “top2α-mediated pBR322 DNA relaxation assay at 10 μM” value at top2α [4] is on record as “inhibitory activity of A35 on top top2α was much higher than that of etoposide (VP16)”. Besides, the “purified top2β-mediated pBR322 DNA cleavage assay” value at top2β is “A35 did not lead to DNA breakage mediated by top2β and the positive (VP16) control induced significant DNA breakage”.
